In US20030134848A1, “Substituted 1-aza-2-imino-heterocycles and their use as nicotinic acetylcholin receptors activators” (priority 2000, published 2003) one finds Ki and remaining activity data, which are given here for 22 compounds.

Assay [1] concerns the target T1, α4β2 subtype of nicotinic acetylcholine receptors (Rattus norvegicus, UniProt P09483+P12390).
T1 construct: rat brain membrane obtained from whole homogenized brain; from tissue; host or cells: whole brain of Fischer-344 male rats, membrane fraction
Briefly: Binding assay at α4β2 subtype of nicotinic acetylcholine receptors ([3H]-cytisine, rat brain membrane). The settings on record: for remaining activity at 1 µM / remaining activity at 10 µM: read-out: control % of [3H]-cytisine binding. The text has this: (§1) The methods for evaluating the binding capabilities of the compounds at nicotinic acetylcholine receptors are different by subtypes of receptors. The binding capabilities of the compounds at α4β2 nicotinic acetylcholine receptors are examined using rat brain membrane obtained from whole homogenized brain, and determining the inhibiting rate of the compounds against [^3H]-cytisine binding to said brain membrane. Furthermore, the binding capabilities of the compounds at α1β1γδ nicotinic acetylcholine receptors are examined using homogenized rat muscle, and determining the inhibiting rate of the compounds against [^3H]-α-bungarotoxin binding to said muscle homogenate.
The affinity of the compounds of the present invention to α4β2 subtype of nicotinic acetylcholine receptors was performed by the following method, which was modified method described by Pabreza L. A., Dhawan S. & Kellar K. J., Mol. Pharm., 39, 9-12 (1990), and by Anderson D. J. & Arneric S. P., Eur. J. Pharm., 253, 261-267 (1994).
(1) Preparation of Rat Brain Membrane Containing α4β2 Subtype of Nicotinic Acetylcholine Receptors
Fischer-344 strain male rats (body weight: 200-240 g; 9 weeks old) obtained from Charles River Japan were used. Rats were housed in the breeding cage controlled of the room temperature at 23±1° C., and the humidity of 55±5% for 1 to 4 weeks. Rats (3 to 4 rats per a cage) were housed with lights on for 12 hours daily (from 7:00 to 19:00), and allowed free access to food and water.
Preparation of rat brain membrane containing α4β2 subtype of nicotinic acetylcholine receptors was performed as follow. That is, rat brains were isolated just after sacrificed by decapitation, washed with ice-cooled saline solution and then frozen at −80° C. with liquid nitrogen and stored till using. After thawing the frozen brain, the brain was homogenized in 10 volumes of ice-cooled buffer solution (50 mM of Tris-HCl, 120 mM of NaCl, 5 mM of KCl, 1 mM of MgCl2, 2 mM of CaCl2; pH 7.4; 4° C.) using homogenizer (HG30, Hitachi Kohki Ltd.) for 30 seconds, and the homogenate were centrifuged under 1,000×G for 10 minutes at 4° C. The resulting supernatant was separated and the pellet was homogenized again with half volume of aforementioned prior buffer solution and centrifuged under the same conditions. Combined supernatant was further centrifuged under 40,000×G for 20 minutes at 4° C. The pellet was suspended in buffer solution and used for binding assays at receptors.
(2) Experiments of α4β2 Subtype of Nicotinic Acetylcholine Receptors Binding
Suspensions of membrane pellets containing 400-600 μg of protein were added to test tubes containing test compounds and [^3H]-cytisine (2 nM) in a final volume of 200 μl and incubated for 75 minutes in ice-cooled bath. The samples were isolated by vacuum filtration onto Whatman GF/B filters, which were prerinsed with 0.5% polyethylenimine just prior to sample filtration, using Brandel multi manifold cell harvester. The filters were rapidly washed with buffer solution (3×1 ml). The filters were counted in 3 ml of clearsol I (Nacalai Tesque Inc.).
The analyses of the experimental results were conducted by using the Accufit Competition Program (Beckman Ltd.).

Assay [2] deals with α1β1γδ subtype of nicotinic acetylcholine receptors (Rattus norvegicus, UniProt P18916+P25108+P25110). Kind of assay: biochemical. In kind it is binding. The settings on record: for Ki: read-out: Affinities for receptors Ki α1β1γδ, rat muscle extract, [3H]-α-Bgt 1 nM; for remaining activity at 100 µM / remaining activity at 1000 µM: read-out: control % of [3H]-α-Bgt binding.
Sequence of α1β1γδ subtype of nicotinic acetylcholine receptors (P25109 24-501): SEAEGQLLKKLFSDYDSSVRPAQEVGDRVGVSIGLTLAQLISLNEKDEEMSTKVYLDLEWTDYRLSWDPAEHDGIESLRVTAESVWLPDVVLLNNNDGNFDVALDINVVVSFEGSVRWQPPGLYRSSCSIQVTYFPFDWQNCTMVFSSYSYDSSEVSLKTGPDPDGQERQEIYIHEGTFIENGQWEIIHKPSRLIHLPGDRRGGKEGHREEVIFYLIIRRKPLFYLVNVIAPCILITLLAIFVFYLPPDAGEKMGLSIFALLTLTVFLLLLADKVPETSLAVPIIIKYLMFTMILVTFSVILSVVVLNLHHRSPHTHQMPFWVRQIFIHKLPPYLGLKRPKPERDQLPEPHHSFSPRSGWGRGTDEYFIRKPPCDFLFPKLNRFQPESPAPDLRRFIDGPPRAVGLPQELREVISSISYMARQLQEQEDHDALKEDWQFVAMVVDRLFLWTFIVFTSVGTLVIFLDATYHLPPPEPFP
Sequence of α1β1γδ subtype of nicotinic acetylcholine receptors (P25110 22-517): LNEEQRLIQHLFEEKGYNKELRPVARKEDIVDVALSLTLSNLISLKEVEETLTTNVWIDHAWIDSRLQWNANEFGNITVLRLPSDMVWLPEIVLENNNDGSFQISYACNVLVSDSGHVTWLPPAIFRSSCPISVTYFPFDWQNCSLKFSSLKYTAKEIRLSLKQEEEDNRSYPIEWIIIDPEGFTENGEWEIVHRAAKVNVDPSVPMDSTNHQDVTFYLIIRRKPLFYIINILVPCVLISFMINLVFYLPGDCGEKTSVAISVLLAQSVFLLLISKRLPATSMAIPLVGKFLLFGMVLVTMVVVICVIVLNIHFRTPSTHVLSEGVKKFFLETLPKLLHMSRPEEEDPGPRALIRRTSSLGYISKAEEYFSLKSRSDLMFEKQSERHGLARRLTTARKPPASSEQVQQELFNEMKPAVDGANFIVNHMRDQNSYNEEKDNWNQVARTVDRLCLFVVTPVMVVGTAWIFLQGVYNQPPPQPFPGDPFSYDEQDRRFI
Sequence of α1β1γδ subtype of nicotinic acetylcholine receptors (P25108 21-457): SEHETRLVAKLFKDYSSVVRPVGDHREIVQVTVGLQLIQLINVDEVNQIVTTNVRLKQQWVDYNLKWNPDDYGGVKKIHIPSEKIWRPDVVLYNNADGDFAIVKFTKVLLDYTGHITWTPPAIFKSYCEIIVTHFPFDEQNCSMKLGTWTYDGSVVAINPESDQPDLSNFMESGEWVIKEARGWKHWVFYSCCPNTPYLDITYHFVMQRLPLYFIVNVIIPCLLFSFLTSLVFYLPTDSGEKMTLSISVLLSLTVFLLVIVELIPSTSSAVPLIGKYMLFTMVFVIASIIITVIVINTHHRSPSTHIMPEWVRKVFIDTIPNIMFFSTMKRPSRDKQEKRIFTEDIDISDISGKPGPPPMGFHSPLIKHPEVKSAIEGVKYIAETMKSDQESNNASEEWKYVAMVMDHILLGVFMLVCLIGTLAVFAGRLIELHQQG
Sequence of α1β1γδ subtype of nicotinic acetylcholine receptors (P18916 23-519): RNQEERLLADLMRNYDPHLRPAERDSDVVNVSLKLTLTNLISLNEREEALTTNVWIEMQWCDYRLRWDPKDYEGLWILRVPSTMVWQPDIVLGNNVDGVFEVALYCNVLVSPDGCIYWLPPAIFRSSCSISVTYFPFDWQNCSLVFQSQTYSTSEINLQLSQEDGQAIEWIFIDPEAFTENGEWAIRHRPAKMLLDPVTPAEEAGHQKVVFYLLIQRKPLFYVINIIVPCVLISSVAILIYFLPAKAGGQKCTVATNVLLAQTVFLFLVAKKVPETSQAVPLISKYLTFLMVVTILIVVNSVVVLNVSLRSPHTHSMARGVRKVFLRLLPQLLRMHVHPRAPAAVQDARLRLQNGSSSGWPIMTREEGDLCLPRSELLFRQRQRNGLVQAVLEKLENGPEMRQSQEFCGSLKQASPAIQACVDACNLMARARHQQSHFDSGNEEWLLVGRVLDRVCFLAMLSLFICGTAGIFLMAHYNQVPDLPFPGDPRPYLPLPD
Source text: as §1
The affinity of the compounds of the present invention to α1β1γδ subtype of nicotinic acetylcholine receptors was measured by the following method, which was modified method described by Garcha H. S., Thomas P., Spivak C. E., Wonnacott S. & Stolerman I. P., Psychropharmacology, 110, 347-354 (1993).
(1) Preparation of Rat Skeletal Muscles Containing α1β1γδ Subtype of Nicotinic Acetylcholine Receptors
The substantially same animals described in the Biological Experiment 1 were used.
The isolation of α1β1γδ subtype of nicotinic acetylcholine receptors was performed as follow. That is, rat posterior skeletal muscles were isolated just after sacrificed by decapitation, washed with ice-cooled saline solution and then frozen at −80° C. with liquid nitrogen and stored till using. After thawing the frozen muscles, tissue was homogenized (40% w/v) with buffer solution [2.5 mM of sodium phosphate buffer (pH:7.2), 90 mM of NaCl, 2 mM of KCl, 1 mM of EDTA, 2 mM of benzamidine, 0.1 mM of benzethonium chloride, 0.1 mM of PMSF, 0.01% of sodium azide] in Waring blender (Waring blender 34BL97; WARING PRODUCTS DIVISION DYNAMICS CORPORATION OF AMERICA) for 60 seconds. The homogenate were centrifuged under 20,000×G for 60 minutes at 4° C. The supernatant was separated and the resulting pellet was added to the same buffer (1.5 ml/g wet weight), and homogenized under the same conditions. Triton X100 (2% w/v) was added and the mixture was stirred for 3 hours at 4° C. The centrifugation at 100,000×G for 60 minutes at 4° C. yielded the rat muscle extract as supernatant. This was stored at 4° C. for up to 4 weeks, and used for binding assays at receptors.
(2) Experiments of α1β1γδ Subtype of Nicotinic Acetylcholine Receptors Binding
Receptors binding experiments were performed as follow. That is, the extract of rat muscle containing 600-900 μg of protein was added to test tubes containing test compounds and incubated for 15 minutes at 37° C. Then, to this mixture was added 1 nM of [^3H]-α-bungarotoxin (α-Bgt) and further incubated for 2 hours. The samples were isolated by vacuum filtration onto Whatman GF/B filters, which were prerinsed with 0.5% polyethylenimine just prior to sample filtration, using Brandel multi manifold cell harvester. The filters were rapidly rinsed with washing solution (10 mM of KH2PO4, 150 mM of NaCl, pH 7.2, room temperature) (5×1 ml). The filters were counted in 3 ml of clearsol I (Nacalai Tesque Inc.). The determination of nonspecific binding was incubated in the presence of 1 μM α-Bgt. The solutions containing α-Bgt (labeled/non-labeled) were prepared by using buffer solution containing 0.25% of BSA. In the receptor binding experiments, said buffer solution was added for adjusting the final concentration of BSA to be 0.05%.
The analyses of the experimental results were conducted by the same way as described in the Biological Experiment 1.

[3] abbreviates: 1 μM of test compound, rat brain membrane.
Where [4] appears, read: 10 μM of test compound, rat brain membrane.

Molecules are shown by their SMILES. Where two headings read alike, the source gives them in different places.

T1 sequence (P09483 31-630): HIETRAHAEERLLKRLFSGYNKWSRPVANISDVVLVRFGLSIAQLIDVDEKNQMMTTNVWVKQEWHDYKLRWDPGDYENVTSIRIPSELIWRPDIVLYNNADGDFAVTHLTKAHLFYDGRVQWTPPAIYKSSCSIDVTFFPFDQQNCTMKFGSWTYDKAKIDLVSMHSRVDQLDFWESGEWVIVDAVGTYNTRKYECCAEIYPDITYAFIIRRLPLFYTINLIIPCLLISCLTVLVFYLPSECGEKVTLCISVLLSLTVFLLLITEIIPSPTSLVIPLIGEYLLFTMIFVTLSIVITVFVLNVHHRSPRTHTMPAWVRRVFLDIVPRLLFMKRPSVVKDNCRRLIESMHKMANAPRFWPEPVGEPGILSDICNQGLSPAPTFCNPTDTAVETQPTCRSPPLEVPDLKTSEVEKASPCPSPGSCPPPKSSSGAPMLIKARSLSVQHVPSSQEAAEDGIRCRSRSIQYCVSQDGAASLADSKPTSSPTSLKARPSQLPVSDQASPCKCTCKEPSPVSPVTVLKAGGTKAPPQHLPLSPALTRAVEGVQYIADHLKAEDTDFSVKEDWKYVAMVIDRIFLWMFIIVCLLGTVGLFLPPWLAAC
T1 sequence (P12390 25-500): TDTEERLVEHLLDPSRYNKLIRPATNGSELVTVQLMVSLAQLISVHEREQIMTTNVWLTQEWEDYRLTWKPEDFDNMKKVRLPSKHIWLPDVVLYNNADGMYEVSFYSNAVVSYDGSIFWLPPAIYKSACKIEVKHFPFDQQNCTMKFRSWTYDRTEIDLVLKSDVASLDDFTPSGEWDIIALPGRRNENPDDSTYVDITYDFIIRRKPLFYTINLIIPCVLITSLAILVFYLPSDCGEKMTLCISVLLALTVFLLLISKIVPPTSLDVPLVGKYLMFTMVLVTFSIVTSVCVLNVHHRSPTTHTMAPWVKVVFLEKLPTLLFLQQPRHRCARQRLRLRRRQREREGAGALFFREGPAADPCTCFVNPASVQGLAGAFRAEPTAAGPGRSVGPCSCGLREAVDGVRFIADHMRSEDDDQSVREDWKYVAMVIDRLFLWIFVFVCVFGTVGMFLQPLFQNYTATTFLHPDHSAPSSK

Turning to `N=C1SCCN1CC(=O)c1ccc(Cl)nc1` [Compound 8, 1-(6-chloro-3-pyridyl)-2-(2-imino-3-thiazolidinyl)-1-ethanone], the Ki in assay [1] was found to be 62 nM; in assay [2], 1830 µM.

In the case of `CN1CCCC1c1cccnc1` (single isomer, unassigned; (-)) [Nicotine, (−)-nicotine, reference compound], the inhibition constant Ki in assay [2] was found to be 182 µM.

As for `N=c1sccn1CCc1ccc(Cl)nc1` [Compound 22, 3-[2-(6-chloro-3-pyridyl)ethyl]-2-imino-2,3-dihydrothiazole], the inhibition constant Ki is 7.4 nM in assay [1] and 132 µM in assay [2].

On to `Nc1nccn1CCc1ccncc1` [Compound 20, 2-amino-1-[2-(4-pyridyl)ethyl]imidazole], for which the remaining activity at 1 µM in assay [1] (setting [3]) was 97%. The remaining activity at 10 µM in assay [1] (setting [4]) amounted to 95%. Also, in assay [2], the remaining activity at 100 µM worked out at 109% and the remaining activity at 1000 µM was found to be 90%.

On to `Cc1nc(N)n(CCc2ccc(Cl)nc2)c1C` [Compound 21, 2-amino-1-[2-(6-chloro-3-pyridyl)ethyl]-4,5-dimethylimidazole], for which the values for the Ki in assay [1] and in assay [2] were 97 nM and 175 µM, respectively.

Turning to `Nc1nccn1CCc1ccccn1` [Compound 19, 2-amino-1-[2-(2-pyridyl)ethyl]imidazole], the remaining activity at 1 µM in assay [1] (setting [3]) was determined as 103%. In assay [1] (setting [4]), the remaining activity at 10 µM turned out to be 106%. In addition, in assay [2], the remaining activity at 100 µM was 106% and the remaining activity at 1000 µM turned out to be 86%.

With `N=c1ccccn1CCc1ccc(Cl)nc1` [Compound 16, 1-[2-(6-chloro-3-pyridyl)ethyl]-2-imino-1,2-dihydropyridine], the Ki in assay [1] came out at 61 nM; in assay [2], 227 µM.

With `N=c1ncccn1CCc1ccc(Cl)nc1` [Compound 3, 1-[2-(6-chloro-3-pyridyl)ethyl]-2-imino-1,2-dihydropyrimidine], in assay [1], the remaining activity at 1 µM was determined as 72% and the remaining activity at 10 µM was found to be 17%. Moreover, in assay [2], the remaining activity at 100 µM turned out to be 72% and the remaining activity at 1000 µM was 39%.

As for `Cc1cn(CCc2ccc(Cl)nc2)c(=N)s1` [Compound 6, 3-[2-(6-chloro-3-pyridyl)ethyl]-2-imino-5-methyl-2,3-dihydro-thiazole], in assay [1], the remaining activity at 1 µM was 77% and the remaining activity at 10 µM stood at 35%. Also, in assay [2], the remaining activity at 100 µM worked out at 82% and the remaining activity at 1000 µM was found to be 61%.

Consider `Nc1nccn1CCc1ccc(Cl)nc1` [Compound 7, 2-amino-1-[2-(6-chloro-pyridyl)ethyl]imidazole], for which the inhibition constant (Ki) was 4.9 nM in assay [1] and 184 µM in assay [2].

Regarding `N=C1SCCN1CC(O)c1ccc(Cl)nc1` (stereo not shown) [Compound 9, 1-(6-Chloro-3-pyridyl)-2-(2-imino-3-thiazolidinyl)-1-ethanol], in assay [1], the remaining activity at 1 µM stood at 97% and the remaining activity at 10 µM stood at 43%. Also, in assay [2], the remaining activity at 100 µM turned out to be 72% and the remaining activity at 1000 µM was determined as 35%.

In the case of `COc1ccc(Sc2ccccc2CCn2ccnc2N)cc1` [Compound 33, 2-amino-1-{2-[2-(4-methoxyphenyl)thiophenyl]ethyl}-imidazole], in assay [1] (setting [3]), the remaining activity at 1 µM came to 111%. The remaining activity at 10 µM in assay [1] (setting [4]) amounted to 92%. Besides, in assay [2], the remaining activity at 100 µM was determined as 119% and the remaining activity at 1000 µM was 85%.

On to `N=C1SCCN1CCc1ccc(Cl)nc1` [Compound 5, 3-[2-(6-chloro-3-pyridyl)ethyl]-2-iminothiazolidine], for which the Ki in assay [1] came to 4.8 nM; in assay [2] it was 34 µM.

Consider `N=C1SCCN1CC(=O)c1ccccc1` [Compound 1, 2-imino-3-phenacylthiazolidine], for which the remaining activity at 1 µM in assay [1] (setting [3]) came out at 93%. Also, in assay [1] (setting [4]), the remaining activity at 10 µM stood at 68%.

Turning to `Nc1nccn1CCc1ccc(Cl)cc1` [Compound 17, 2-amino-1-[2-(4-chlorophenyl)ethyl]imidazole], the remaining activity at 1 µM in assay [1] (setting [3]) is 97%. The remaining activity at 10 µM in assay [1] (setting [4]) is 78%. In assay [2], the remaining activity at 100 µM is 83% and the remaining activity at 1000 µM is 67%.

Turning to `N=c1sccn1CCc1cnc(Cl)s1` [Compound 24, 3-[2-(2-chloro-5-thiazolyl)ethyl]-2-imino-2,3-dihydrothiazole], the Ki was 35 nM in assay [1] and 58 µM in assay [2].

In the case of `Cc1csc(=N)n1CCc1ccc(Cl)nc1` [Compound 4, 3-[2-(6-chloro-3-pyridyl)ethyl]-2-imino-4-methyl-2,3-dihydrothiazole], the Ki stood at 5.6 nM in assay [1] and 10 µM in assay [2].

As to `Nc1nccn1CCc1cncnc1Cl` [Compound 35, 2-amino-1-[2-(4-chloro-5-pyrimidyl)ethyl]imidazole], in assay [1], the remaining activity at 1 µM is 61% and the remaining activity at 10 µM came out at 17%. For the same compound, in assay [2], the remaining activity at 100 µM worked out at 87% and the remaining activity at 1000 µM was determined as 49%.

On to `Nc1nccn1CCc1ccc(O)cc1` [Compound 26, 2-amino-1-[2-(4-hydroxyphenyl)ethyl]imidazole], for which the remaining activity at 1 µM in assay [1] (setting [3]) was 93%. Also, in assay [1] (setting [4]), the remaining activity at 10 µM was 60%. In addition, in assay [2], the remaining activity at 100 µM was 81% and the remaining activity at 1000 µM worked out at 50%.

As to `Cc1sc(=N)n(CCc2ccc(Cl)nc2)c1C` [Compound 10, 3-[2-(6-chloro-3-pyridyl)ethyl]-2-imino-4,5-dimethyl-2,3-dihydrothiazole], the results for the Ki in assay [1] and in assay [2] were 51 nM and 215 µM, respectively.

As for `CC(=O)Cn1ccsc1=N` [Compound 2, 3-acetonyl-2-imino-2,3-dihydrothiazole], the remaining activity at 1 µM in assay [1] (setting [3]) was 107%. The remaining activity at 10 µM in assay [1] (setting [4]) was found to be 101%.

`Cc1cncc(CCn2ccsc2=N)c1` [Compound 28, 2-imino-3-[2-(5-methyl-3-pyridyl)ethyl]-2,3-dihydrothiazole]: the Ki came to 27 nM in assay [1] (rat brain membrane, [3H]-cytisine 2 nM, read-out: Affinities for receptors Ki α4β2) and 94 µM in assay [2].

What is called Ki is a dissociation constant, usually derived from enzyme kinetics or from competition with a known ligand.
